Results published in patent publication US20250230153A1, “2,3-DIHYDROBENZO[B][1,4]DIOXIN-6-YL CONTAINING COMPOUNDS USEFUL AS IMMUNOMODULATORS” (BRISTOL-MYERS SQUIBB COMPANY, priority 2021, published 2025).

target: PD-1/PD-L1 (Homo sapiens (Human), UniProt Q9NZQ7); assay: PD-1/PD-L1 Homogenous Time-Resolved Fluorescence (HTRF) binding assay; settings: PD-1-Ig (20 nM final)/PD-L1-His (10 nM final) binding assay
Text: The ability of the compounds of the invention to bind to PD-L1 was investigated using a PD-1/PD-L1 Homogenous Time-Resolved Fluorescence (HTRF) binding assay.
The interaction of PD-1 and PD-L1 can be assessed using soluble, purified preparations of the extracellular domains of the two proteins. The PD-1 and PD-L1 protein extracellular domains were expressed as fusion proteins with detection tags, for PD-1, the tag was the Fc portion of Immunoglobulin (PD-1-Ig) and for PD-L1 it was the 6 histidine motif (PD-L1-His). All binding studies were performed in an HTRF assay buffer consisting of dPBS supplemented with 0.1% […] bovine serum albumin and 0.05% (v/v) Tween-20. For the h/PD-L1-His binding assay, inhibitors were pre-incubated with PD-L1-His (10 nM final) for 15m in 4 μl of assay buffer, followed by addition of PD-1-Ig (20 nM final) in 1 μl of assay buffer and further incubation for 15 m. HTRF detection was achieved using europium crypate-labeled anti-Ig (1 nM final) and allophycocyanin (APC) labeled anti-His (20 nM final). Antibodies were diluted in HTRF detection buffer and 5 μl was dispensed on top of the binding reaction. The reaction mixture was allowed to equilibrate for 30 minutes and the resulting signal (665 nm/620 nm ratio) was obtained using an EnVision fluorometer. Additional binding assays were established between the human proteins PD-1-Ig/PD-L2-His (20 & 5 nM, respectively) and CD80-His/PD-L1-Ig (100 & 10 nM, respectively).
Recombinant Proteins: Human PD-1 (25-167) with a C-terminal human Fc domain of immunoglobulin G (Ig) epitope tag [hPD-1 (25-167)-3S-IG] and human PD-L1 (18-239) with a C-terminal His epitope tag [hPD-L1(18-239)-TVMV-His] were expressed in HEK293T cells and purified sequentially by ProteinA affinity chromatography and size exclusion chromatography. Human PD-L2-His and CD80-His was obtained through commercial sources.
Homogenous Time-Resolved Fluorescence (HTRF) Assays of Binding of Soluble PD-1 to Soluble PD-L1. Soluble PD-1 and soluble PD-L1 refers to proteins with carboxyl-end truncations that remove the transmembrane-spanning regions and are fused to heterologous sequences, specifically the Fc portion of the human immunoglobuling G sequence (Ig) or the hexahistidine epitope tag (His). All binding studies were performed in an HTRF assay buffer consisting of dPBS supplemented with 0.1% (w/v) bovine serum albumin and 0.05% (v/v) Tween-20. For the PD-1-Ig/PD-L1-His binding assay, inhibitors were pre-incubated with PD-L1-His (10 nM final) for 15m in 4 μl of assay buffer, followed by addition of PD-1-Ig (20 nM final) in 1 μl of assay buffer and further incubation for 15 m. PD-L1 fusion proteins from either human, cynomologous macaques, mouse, or other species were used. HTRF detection was achieved using europium crypate-labeled anti-Ig monoclonal antibody (1 nM final) and allophycocyanin (APC) labeled anti-His monoclonal antibody (20 nM final). Antibodies were diluted in HTRF detection buffer and 5 μl was dispensed on top of binding reaction. The reaction was allowed to equilibrate for 30 minutes and signal (665 nm/620 nm ratio) was obtained using an EnVision fluorometer. Additional binding assays were established between PD-1-Ig/PD-L2-His (20 and 5 nM, respectively), CD80-His/PD-L1-Ig (100 and 10 nM, respectively) and CD80-His/CTLA4-Ig (10 and 5 nM, respectively).
Recombinant Proteins. Carboxyl-truncated human PD-1 (amino acids 25-167) with a C-terminal human Ig epitope tag [hPD-1 (25-167)-3S-IG] and human PD-L1 (amino acids 18-239) with a C-terminal His epitope tag [hPD-L1(19-239)-tobacco vein mottling virus protease cleavage site (TVMV)-His] were expressed in HEK293T cells and purified sequentially by recombinant Protein A affinity chromatography and size exclusion chromatography. Human PD-L2-His (Sino Biologicals), CD80-His (Sino Biologicals), CTLA4-Ig (RnD Systems) were all obtained through commercial sources.

Chain of PD-1/PD-L1 (Q9NZQ7 18-239): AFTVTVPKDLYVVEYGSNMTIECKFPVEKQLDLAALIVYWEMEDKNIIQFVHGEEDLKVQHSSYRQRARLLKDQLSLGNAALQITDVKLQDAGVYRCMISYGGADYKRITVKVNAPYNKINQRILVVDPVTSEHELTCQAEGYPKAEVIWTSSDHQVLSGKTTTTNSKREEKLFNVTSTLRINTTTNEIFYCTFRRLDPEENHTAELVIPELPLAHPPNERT

| Structure (SMILES) | IC50 [nM] |
| --- | --- |
| Cc1c(COc2cc(OCc3cncc(C(=O)NS(C)(=O)=O)c3)c(CN3CCCC[C@H]3C(=O)O)cc2Cl)cccc1-c1ccc2c(c1)OCCO2 [Example 1021, (S)-1-(5-Chloro-4-((3-(2,3-dihydrobenzo[b][1,4]dioxin-6-yl)-2-methylbenzyl)oxy)-2-((5-((methylsulfonyl)carbamoyl)pyridin-3-yl)methoxy)benzyl)piperidine-2-carboxylic acid] | 5.7 |
| Cc1c(COc2cc(OCc3cccc(-c4nc(CC(=O)O)co4)c3)c(CN[C@@](C)(CO)C(=O)O)cc2Cl)cccc1-c1ccc2c(c1)OCCO2 [Example 1015, (S)-2-((2-((3-(4-(Carboxymethyl)oxazol-2-yl)benzyl)oxy)-5-chloro-4-((3-(2,3-dihydrobenzo[b][1,4]dioxin-6-yl)-2-methylbenzyl)oxy)benzyl)amino)-3-hydroxy-2-methylpropanoic acid] | 68.4 |
| Cc1cnc(COc2cc(OCc3cccc(-c4ccc5c(c4)OCCO5)c3C)c(Cl)cc2CN[C@H](CO)C(=O)O)cn1 [Example 1001, (R)-2-((5-Chloro-4-((3-(2,3-dihydrobenzo[b][1,4]dioxin-6-yl)-2-methylbenzyl)oxy)-2-((5-methylpyrazin-2-yl)methoxy)benzyl)amino)-3-hydroxypropanoic acid] | 4.5 |
| Cc1c(COc2cc(OCc3cncc(C(=O)N[C@@H](CCCNC(=N)N)C(=O)O)c3)c(CN3CC[C@H](O)C3)cc2Cl)cccc1-c1ccc2c(c1)OCCO2 [Example 2010, (S)-2-(5-((4-chloro-5-((3-(2,3-dihydrobenzo[b][1,4]dioxin-6-yl)-2-methylbenzyl)oxy)-2-(((S)-3-hydroxypyrrolidin-1-yl)methyl)phenoxy)methyl)nicotinamido)-5-guanidinopentanoic acid] | 6.5 |
| Cc1c(COc2cc(OCC3CCOCC3)c(CN3CCCC[C@H]3C(=O)O)cc2Cl)cccc1-c1ccc2c(c1)OCCO2 [Example 1046, (S)-1-(5-Chloro-4-((3-(2,3-dihydrobenzo[b][1,4]dioxin-6-yl)-2-methylbenzyl)oxy)-2-((tetrahydro-2H-pyran-4-yl)methoxy)benzyl)piperidine-2-carboxylic acid] | 7 |
| Cc1c(COc2cc(OCCN3CCCCC3)c(CN3CCCC[C@H]3C(=O)O)cc2Cl)cccc1-c1ccc2c(c1)OCCO2 [Example 1042, (S)-1-(5-Chloro-4-((3-(2,3-dihydrobenzo[b][1,4]dioxin-6-yl)-2-methylbenzyl)oxy)-2-(2-(piperidin-1-yl)ethoxy)benzyl)piperidine-2-carboxylic acid] | 0.6 |
| Cc1c(COc2cc(OC[C@@H](C)CO)c(CN3CCCC[C@H]3C(=O)O)cc2Cl)cccc1-c1ccc2c(c1)OCCO2 [Example 1034, (S)-1-(5-chloro-4-((3-(2,3-dihydrobenzo[b][1,4]dioxin-6-yl)-2-methylbenzyl)oxy)-2-((S)-3-hydroxy-2-methylpropoxy)benzyl)piperidine-2-carboxylic acid] | 3.9 |
| Cc1c(COc2cc(OCCN3CCCCC3)c(CNC(C)(CO)CO)cc2Cl)cccc1-c1ccc2c(c1)OCCO2 [Example 1044, 2-((5-Chloro-4-((3-(2,3-dihydrobenzo[b][1,4]dioxin-6-yl)-2-methylbenzyl)oxy)-2-(2-(piperidin-1-yl)ethoxy)benzyl)amino)-2-methylpropane-1,3-diol] | 2.1 |
| Cc1c(COc2cc(OC[C@H](C)CO)c(CN3CCCC[C@H]3C(=O)O)cc2Cl)cccc1-c1ccc2c(c1)OCCO2 [Example 1031, (S)-1-(5-Chloro-4-((3-(2,3-dihydrobenzo[b][1,4]dioxin-6-yl)-2-methylbenzyl)oxy)-2-((R)-3-hydroxy-2-methylpropoxy)benzyl)piperidine-2-carboxylic acid] | 14.7 |

Other lines, results leading:

| IC50 [nM] | Structure (SMILES) |
| --- | --- |
| 0.4 | Cc1c(COc2cc(OCCN3CCCCC3)c(CN[C@](C)(CO)C(=O)O)cc2Cl)cccc1-c1ccc2c(c1)OCCO2 [Example 1043, (R)-2-((5-Chloro-4-((3-(2,3-dihydrobenzo[b][1,4]dioxin-6-yl)-2-methylbenzyl)oxy)-2-(2-(piperidin-1-yl)ethoxy)benzyl)amino)-3-hydroxy-2-methylpropanoic acid] |
| 6.5 | Cc1c(COc2cc(OCC3CCCN(C)C3)c(CN[C@@](C)(CO)C(=O)O)cc2Cl)cccc1-c1ccc2c(c1)OCCO2 (stereo partly drawn) [Example 2003, (2S)-2-((5-chloro-4-((3-(2,3-dihydrobenzo[b][1,4]dioxin-6-yl)-2-methylbenzyl)oxy)-2-((1-methylpiperidin-3-yl)methoxy)benzyl)amino)-3-hydroxy-2-methylpropanoic acid] |
| 1.7 | Cc1c(COc2cc(OCc3cnn(CC#N)c3)c(CN[C@@](C)(CO)C(=O)O)cc2Cl)cccc1-c1ccc2c(c1)OCCO2 [Example 1008, (S)-2-((5-chloro-2-((1-(cyanomethyl)-1H-pyrazol-4-yl)methoxy)-4-((3-(2,3-dihydrobenzo[b][1,4]dioxin-6-yl)-2-methylbenzyl)oxy)benzyl)amino)-3-hydroxy-2-methylpropanoic acid] |
| 28.5 | Cc1c(COc2cc(OCC3CCCN(C)C3)c(CN3CCCC[C@H]3C(=O)O)cc2Cl)cccc1-c1ccc2c(c1)OCCO2 (stereo partly drawn) [Example 2012, (2S)-1-(5-Chloro-4-((3-(2,3-dihydrobenzo[b][1,4]dioxin-6-yl)-2-methylbenzyl)oxy)-2-((1-methylpiperidin-3-yl)methoxy)benzyl)piperidine-2-carboxylic acid] |
| 14.2 | Cc1c(COc2cc(OCC3CCC3)c(CNC(C)(CO)CO)cc2Cl)cccc1-c1ccc2c(c1)OCCO2 [Example 1049, 2-((5-Chloro-2-(cyclobutylmethoxy)-4-((3-(2,3-dihydrobenzo[b][1,4]dioxin-6-yl)-2-methylbenzyl)oxy)benzyl)amino)-2-methylpropane-1,3-diol] |
| 1.8 | Cc1c(COc2cc(OCCN3CCOCC3)c(CN[C@](C)(CO)C(=O)O)cc2Cl)cccc1-c1ccc2c(c1)OCCO2 [Example 1037, (R)-2-((5-Chloro-4-((3-(2,3-dihydrobenzo[b][1,4]dioxin-6-yl)-2-methylbenzyl)oxy)-2-(2-morpholinoethoxy)benzyl)amino)-3-hydroxy-2-methylpropanoic acid] |
| 50.5 | Cc1c(COc2cc(OCC3CCCCC3)c(CNC(C)(CO)CO)cc2Cl)cccc1-c1ccc2c(c1)OCCO2 [Example 1041, 2-((5-Chloro-2-(cyclohexylmethoxy)-4-((3-(2,3-dihydrobenzo[b][1,4]dioxin-6-yl)-2-methylbenzyl)oxy)benzyl)amino)-2-methylpropane-1,3-diol] |
| 1.3 | COC(=O)C1(O)CCN(CCOc2cc(OCc3cccc(-c4ccc5c(c4)OCCO5)c3C)c(Cl)cc2CN[C@](C)(CO)C(=O)O)CC1 [Example 1052, (R)-2-((5-Chloro-4-((3-(2,3-dihydrobenzo[b][1,4]dioxin-6-yl)-2-methylbenzyl)oxy)-2-(2-(4-hydroxy-4-(methoxycarbonyl)piperidin-1-yl)ethoxy)benzyl)amino)-3-hydroxy-2-methylpropanoic acid] |
| 2.8 | Cc1c(COc2cc(OCC3CCCN(C)C3)c(CN[C@@H](CO)C(=O)O)cc2Cl)cccc1-c1ccc2c(c1)OCCO2 (single isomer, unassigned) [Example 2006] |
